Test results published in patent US9988400B2 (Genentech, Inc., priority 2013, dated 2018).

Target: T1, HEK cells stably transfected with tetracycline inducible hNR1 and hNR2A (Homo sapiens, UniProt Q05586+Q12879)
T1 construct: expressed in transfected cells; host or cells: HEK cells, stably transfected, tetracycline/doxycycline inducible
Experiment: Assay 1: Cell-Based Assay, cytosolic calcium response to positive allosteric modulators (with 30 μM glycine and 300 nM L-glutamate, EC30)
Conditions: Table 2; for EC50: cytosolic calcium response, with 30 μM glycine and 300 nM L-glutamate (EC30), — = no plateau was reached; for Max %: responses scaled relative to 100 μM L-glutamate maximal response (100%) and 0 μM L-glutamate (0%)
Description: Assay 1: Cell-Based Assay
HEK cells stably transfected with tetracycline inducible hNR1 and hNR2A were seeded into clear bottom 384 well poly-D-lysine coated plates (2.5×10^4 cells per well) in Minimum Essential Media (MEM; without L-) including 7.5 μg mL^−1 doxycycline and 500 μM (+)-ketamine. The cells were incubated at 37° C. in 5% CO2 for 24 h. For measurement of changes in cytosolic calcium, the seeding media was removed and the cells incubated at 37° C. for 60 min with 1× Becton Dickinson Calcium Assay Kit reagent in Hanks Balanced Salt Solution (HBSS; w/o magnesium, including 1.8 mM calcium, 0.65 mg ml^−1 probenecid and 10 μM (+)-ketamine, pH 7.15) then allowed to equilibrate to rt for 30 min. Concentration-effect curves to Positive Allosteric Modulators (PAMs) were constructed by adding different concentrations (with 30 μM glycine and 300 nM L-glutamate (EC30)) to different wells in HBSS. Compounds were added after a 10 second baseline read and maximum level of relative fluorescence units (RFU) was measured over a 5 min period. Responses were scaled relative to 100 μM L-glutamate maximal response (100%) and 0 μM L-glutamate (0%). EC50 values are provided for compounds reaching maximal response plateaus, and the max % (EC50 (- -)) only if no plateau was reached.
A four-parameter Hill equation was fitted to individual concentration-effect curves:
[formula] in which Y, S0, Sinf, AC50, n and c were effect, lower-asymptote, upper-asymptote, mid-point location, slope parameter, and concentration respectively.

T1 sequence (Q12879 23-1464, other chains not shown): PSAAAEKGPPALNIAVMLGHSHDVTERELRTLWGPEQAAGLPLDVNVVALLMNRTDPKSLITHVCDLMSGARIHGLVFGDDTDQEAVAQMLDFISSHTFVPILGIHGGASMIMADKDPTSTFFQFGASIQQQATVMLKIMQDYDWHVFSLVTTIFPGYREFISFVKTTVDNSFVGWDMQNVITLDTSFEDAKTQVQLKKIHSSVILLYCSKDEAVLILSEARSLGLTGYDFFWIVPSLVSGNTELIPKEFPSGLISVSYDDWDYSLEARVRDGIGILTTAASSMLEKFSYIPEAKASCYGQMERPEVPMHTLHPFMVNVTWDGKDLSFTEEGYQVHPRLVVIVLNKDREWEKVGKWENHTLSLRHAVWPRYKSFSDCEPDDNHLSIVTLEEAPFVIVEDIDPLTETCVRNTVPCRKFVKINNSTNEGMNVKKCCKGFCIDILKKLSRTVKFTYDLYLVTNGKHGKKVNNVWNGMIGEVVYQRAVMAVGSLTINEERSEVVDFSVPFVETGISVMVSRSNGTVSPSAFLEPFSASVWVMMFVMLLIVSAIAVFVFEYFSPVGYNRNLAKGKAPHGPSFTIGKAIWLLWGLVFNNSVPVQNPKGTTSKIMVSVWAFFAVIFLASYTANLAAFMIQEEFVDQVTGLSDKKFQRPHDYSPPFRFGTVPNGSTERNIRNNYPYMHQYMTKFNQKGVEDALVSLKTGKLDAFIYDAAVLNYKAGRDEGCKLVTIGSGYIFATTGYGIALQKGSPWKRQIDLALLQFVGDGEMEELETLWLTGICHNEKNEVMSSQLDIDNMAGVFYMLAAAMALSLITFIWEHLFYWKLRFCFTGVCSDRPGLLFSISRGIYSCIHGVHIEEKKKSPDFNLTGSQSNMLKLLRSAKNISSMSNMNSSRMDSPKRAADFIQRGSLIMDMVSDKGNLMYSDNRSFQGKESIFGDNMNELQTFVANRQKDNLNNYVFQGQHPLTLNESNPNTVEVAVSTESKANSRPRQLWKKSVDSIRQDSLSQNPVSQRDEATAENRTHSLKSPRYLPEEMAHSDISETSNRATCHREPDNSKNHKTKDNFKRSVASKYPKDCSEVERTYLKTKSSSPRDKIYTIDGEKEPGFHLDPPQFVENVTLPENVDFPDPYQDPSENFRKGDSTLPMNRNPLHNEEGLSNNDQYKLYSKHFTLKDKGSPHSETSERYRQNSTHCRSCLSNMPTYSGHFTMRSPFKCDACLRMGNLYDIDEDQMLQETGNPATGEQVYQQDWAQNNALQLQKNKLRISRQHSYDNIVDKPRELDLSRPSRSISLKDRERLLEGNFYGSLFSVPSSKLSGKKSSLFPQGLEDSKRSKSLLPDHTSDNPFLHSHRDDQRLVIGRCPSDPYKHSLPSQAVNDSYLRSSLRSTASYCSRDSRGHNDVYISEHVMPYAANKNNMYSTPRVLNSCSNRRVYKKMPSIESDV

SMILES | EC50 | Max %
Cc1sc2nc(COc3ccc(F)cc3)cc(=O)n2c1C1CC1C#N (racemic) [Example 4.18, cis-2-[7-(4-Fluorophenoxymethyl)-2-methyl-5-oxo-5H-[1,3]thiazolo[3,2-a]pyrimidin-3-yl]cyclopropane-1-carbonitrile] | 5 µM | 102%
Cc1sc2nc(COc3cccc(F)c3)cc(=O)n2c1[C@@H]1C[C@H]1CO (relative stereo) [Example 4.4, 7-((3-fluorophenoxy)methyl)-3-(trans-2-(hydroxymethyl)cyclopropyl)-2-methyl-5H-thiazolo[3,2-a]pyrimidin-5-one] | 2.5 µM | 138%
Cc1sc2nc(COc3ccc(F)cc3F)cc(=O)n2c1[C@@H]1C[C@H]1CO (relative stereo) [Example 4.6, 7-(2,4-Difluorophenoxymethyl)-3-[trans-2-(hydroxymethyl)cyclopropyl]-2-methyl-5H-[1,3]thiazolo[3,2-a]pyrimidin-5-one] | 7.7 µM | 128%
Cc1sc2nc(COc3ccc(F)c(F)c3)cc(=O)n2c1[C@@H]1C[C@H]1CO (relative stereo) [Example 4.7, 7-(3,4-Difluorophenoxymethyl)-3-[trans-2-(hydroxymethyl)cyclopropyl]-2-methyl-5H-[1,3]thiazolo[3,2-a]pyrimidin-5-one] | 5.8 µM | 134%
Cc1sc2nc(COc3ccc(Cl)cc3)cc(=O)n2c1[C@@H]1C[C@H]1CO (relative stereo) [Example 4.8, 7-(4-Chlorophenoxymethyl)-3-[trans-2-(hydroxymethyl)cyclopropyl]-2-methyl-5H-[1,3]thiazolo[3,2-a]pyrimidin-5-one] | 4.4 µM | 99.3%
Cc1sc2nc(COc3ccc(F)cn3)cc(=O)n2c1[C@@H]1C[C@H]1CO (relative stereo) [Example 4.9, 7-[[(5-Fluoropyridin-2-yl)oxy]methyl]-3-[trans-2-(hydroxymethyl)cyclopropyl]-2-methyl-5H-[1,3]thiazolo[3,2-a]pyrimidin-5-one] | 4.4 µM | 123%
Cc1sc2nc(COc3ccc(C(F)(F)F)cc3)cc(=O)n2c1[C@@H]1C[C@H]1CO (relative stereo) [Example 4.10, 3-(trans-2-(hydroxymethyl)cyclopropyl)-2-methyl-7-((4-(trifluoromethyl)phenoxy)methyl)-5H-thiazolo[3,2-a] pyrimidin-5-one] | 4.3 µM | 108%
Cc1sc2nc(COc3ccccc3F)cc(=O)n2c1[C@@H]1C[C@H]1CO (relative stereo) [Example 4.12, 7-((2-fluorophenoxy)methyl)-3-(trans-2-(hydroxymethyl)cyclopropyl)-2-methyl-5H-thiazolo[3,2-a]pyrimidin-5-one] | 30.6 µM | 127%
Cc1sc2nc(COc3ccc(C#N)cc3)cc(=O)n2c1[C@@H]1C[C@H]1CO (relative stereo) [Example 4.13, 4-((3-(trans-2-(hydroxymethyl)cyclopropyl)-2-methyl-5-oxo-5H-thiazolo[3,2-a]pyrimidin-7-yl)methoxy)benzonitrile] | 31.1 µM | 72.8%
O=c1cc(COc2ccc(F)cc2)nc2scc([C@@H]3C[C@H]3CO)n12 (relative stereo) [Example 4.14, 7-((4-fluorophenoxy)methyl)-3-(trans-2-(hydroxymethyl)cyclopropyl)-5H-thiazolo[3,2-a]pyrimidin-5-one] | 7.8 µM | 93%
Cc1sc2nc(COc3ccc(F)cc3)cc(=O)n2c1[C@@H]1C[C@@H]1CO (relative stereo) [Example 4.23, 7-(4-Fluorophenoxymethyl)-3-[cis-2-(hydroxymethyl)cyclopropyl]-2-methyl-5H-[1,3]thiazolo[3,2-a]pyrimidin-5-one] | 26.5 µM | 62.9%
Cc1sc2nc(COc3ccc(F)cc3)cc(=O)n2c1[C@@H]1C[C@H]1C(F)(F)F (relative stereo) [Example 4.24, trans-7-(4-Fluorophenoxymethyl)-2-methyl-3-[2-(trifluoromethyl)cyclopropyl]-5H-[1,3]thiazolo[3,2-a]pyrimidin-5-one] | 2.1 µM | 80%
Cc1sc2nc(COc3ccc(F)cc3)cc(=O)n2c1[C@@H]1C[C@H]1CC#N (relative stereo) [Example 4.26, trans-2-[2-[7-(4-Fluorophenoxymethyl)-2-methyl-5-oxo-5H-[1,3]thiazolo[3,2-a]pyrimidin-3-yl]cyclopropyl]acetonitrile] |  | 98.8%
Cc1sc2nc(COc3ccc(F)cc3)c(F)c(=O)n2c1[C@@H]1C[C@H]1CO (relative stereo) [Example 4.29, 6-fluoro-7-((4-fluorophenoxy)methyl)-3-(trans-2-(hydroxymethyl)cyclopropyl)-2-methyl-5H-thiazolo[3,2-a]pyrimidin-5-one] | 17.5 µM | 134%
CCN(Cc1cc(=O)n2c([C@@H]3C[C@H]3CO)c(C)sc2n1)c1ccccn1 (relative stereo) [Example 5.7, 7-((ethyl(pyridine-2-yl)amino)methyl)-3-(trans-2-(hydroxymethyl)cyclopropyl)-2-methyl-5H-thiazolo[3,2-a] pyrimidin-5-one] | 0.867 µM | 160%
CCN(Cc1cc(=O)n2c([C@@H]3C[C@H]3CO)c(C)sc2n1)c1ccc(F)cc1 (relative stereo) [Example 5.17, 7-((ethyl(4-fluorophenyl)amino)methyl)-3-(trans-2-(hydroxymethyl)cyclopropyl)-2-methyl-5H-thiazolo[3,2-a] pyrimidin-5-one] | 0.108 µM | 176%
CCN(Cc1cc(=O)n2c([C@@H]3C[C@H]3CO)csc2n1)c1ccc(F)cc1 (relative stereo) [Example 5.28, 7-[(N-ethyl-4-fluoro-anilino)methyl]-3-[trans-2-(hydroxymethyl)cyclopropyl)thiazolo[3,2-a]pyrimidin-5-one] | 0.0952 µM | 176%
CCN(Cc1cc(=O)n2c([C@@H]3C[C@H]3CF)c(C)sc2n1)c1ccc(F)cc1 (relative stereo) [Example 5.39, 7-((ethyl(4-fluorophenyl)amino)methyl)-3-(trans-2-(fluoromethyl)cyclopropyl)-2-methyl-5H-thiazolo[3,2-a]pyrimidin-5-one] | 0.952 µM | 167%

More lines, now with the values ahead:

EC50 | Max % | SMILES
1 µM | 167% | Cc1sc2nc(Cn3nc(C(F)(F)F)cc3C(F)(F)F)cc(=O)n2c1[C@@H]1C[C@H]1CO (relative stereo) [Example 15.2, 7-((3,5-bis(trifluoromethyl)-1H-pyrazol-1-yl)methyl)-3-(trans-2-(hydroxymethyl)cyclopropyl)-2-methyl-5H-thiazolo[3,2-a]pyrimidin-5-one]
0.489 µM | 144% | Cc1sc2nc(Cn3nc(Cl)cc3C)cc(=O)n2c1[C@@H]1C[C@H]1CO (relative stereo) [Example 15.3, 7-((3-chloro-5-methyl-1H-pyrazol-1-yl)methyl)-3-(trans-2-(hydroxymethyl)cyclopropyl)-2-methyl-5H-thiazolo[3,2-a]pyrimidin-5-one]
0.782 µM | 137% | Cc1cc(Cl)n(Cc2cc(=O)n3c([C@@H]4C[C@H]4CO)c(C)sc3n2)n1 (relative stereo) [Example 15.4, 7-((5-chloro-3-methyl-1H-pyrazol-1-yl)methyl)-3-(trans-2-(hydroxymethyl)cyclopropyl)-2-methyl-5H-thiazolo[3,2-a]pyrimidin-5-one]
1.7 µM | 131% | Cc1sc2nc(Cn3ccc(C(F)(F)F)n3)cc(=O)n2c1[C@@H]1C[C@H]1CO (relative stereo) [Example 15.5, 3-(trans-2-(hydroxymethyl)cyclopropyl)-2-methyl-7-((3-(trifluoromethyl)-1H-pyrazol-1-yl)methyl)-5H-thiazolo[3,2-a]pyrimidin-5-one]
9.2 µM | 138% | Cc1sc2nc(Cn3ncc4ccccc43)cc(=O)n2c1[C@@H]1C[C@H]1CO (relative stereo) [Example 15.6, 7-((1H-indazol-1-yl)methyl)-3-(trans-2-(hydroxymethyl)cyclopropyl)-2-methyl-5H-thiazolo[3,2-a]pyrimidin-5-one]
0.826 µM | 158% | Cc1sc2nc(Cn3nc(C(F)(F)F)cc3CCO)cc(=O)n2c1[C@@H]1C[C@H]1CO (relative stereo) [Example 15.7, 7-[[5-(2-hydroxyethyl)-3-(trifluoromethyl)-1H-pyrazol-1-yl]methyl]-3-[trans-2-(hydroxymethyl)cyclopropyl]-2-methyl-5H-[1,3]thiazolo[3,2-a]pyrimidin-5-one]
30.8 µM | 122% | Cc1sc2nc(Cn3nc(CCO)cc3C(F)(F)F)cc(=O)n2c1[C@@H]1C[C@H]1CO (relative stereo) [Example 15.8, 7-((3-(2-hydroxyethyl)-5-(trifluoromethyl)-1H-pyrazol-1-yl)methyl)-3-(trans-2-(hydroxymethyl)cyclopropyl)-2-methyl-5H-thiazolo[3,2-a]pyrimidin-5-one]
